Target: 6×His-CRBN-DDB1 protein (Homo sapiens (Human), UniProt Q96SW2)
Experiment: CRBN Fluorescence Polarization Assay
Type: binding
Details: competitive fluorescence polarization; Cy5-O-Len probe 30 nM, 6×His-CRBN-DDB1 200 nM; 1 hour at room temperature; mean of three independent determinations; read-out: CRBN FP (IC50)
Experimental: In this competitive fluorescent polarization assay Cy5 conjugated lenalidomide analog (Cy5-O-Len)^13 was used as a fluorescent probe. 6×His-CRBN-DDB1 protein (200 nM) and Cy5-O-Len probe (30 nM) were combined in 20 mM HEPES pH 7, 150 mM NaCl, 0.005% Tween-20 assay buffer. 20 μL of this assay cocktail was dispensed into wells of Corning 3821 black 384-well plates. Compounds were transferred to the assay plate from a dose-response plate using a Pintool on a Biomek FXP Laboratory Automation Workstation (Beckman Coulter). The plates were incubated in the dark for 1 hour at room temperature and then read on an Envision plate reader (PerkinElmer, Massachusetts, USA). IC50 values were determined using a proprietary software RISE (Robust Investigation of Screening Experiments), developed in house on the Pipeline Pilot platform (Biovia, v. 17.2.0). Data represent the mean of three independent determinations.
Cereblon binding activity was determined as described herein above, and the results are provided below in Table 2 for representative disclosed compounds. Compound number (“Cmpd No.”) refers to the compound number (and associated compound information such as structure, name, etc.) as provided in Table 1. In Table 2 below: cereblon binding IC50 values are categorized as follows: “A” represents IC50 value<1 μM, “B” represents IC50 value between 1 and 10 μM, and “C” represents IC50 value>10 μM.

Chain of 6×His-CRBN-DDB1 protein (Q96SW2 whole entry): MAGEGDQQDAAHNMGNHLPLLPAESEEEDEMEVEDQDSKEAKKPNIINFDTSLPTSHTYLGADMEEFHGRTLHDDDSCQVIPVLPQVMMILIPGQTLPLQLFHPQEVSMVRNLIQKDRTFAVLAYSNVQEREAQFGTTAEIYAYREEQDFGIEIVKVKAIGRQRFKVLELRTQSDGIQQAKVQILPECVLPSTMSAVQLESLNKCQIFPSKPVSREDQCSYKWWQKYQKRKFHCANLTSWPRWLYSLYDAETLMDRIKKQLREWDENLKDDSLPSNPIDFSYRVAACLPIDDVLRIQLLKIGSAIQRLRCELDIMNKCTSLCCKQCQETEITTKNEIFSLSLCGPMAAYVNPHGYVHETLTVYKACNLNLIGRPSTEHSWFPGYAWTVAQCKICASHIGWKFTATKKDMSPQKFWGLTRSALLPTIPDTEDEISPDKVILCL
Chain of 6×His-CRBN-DDB1 protein (Q16531 whole entry partner): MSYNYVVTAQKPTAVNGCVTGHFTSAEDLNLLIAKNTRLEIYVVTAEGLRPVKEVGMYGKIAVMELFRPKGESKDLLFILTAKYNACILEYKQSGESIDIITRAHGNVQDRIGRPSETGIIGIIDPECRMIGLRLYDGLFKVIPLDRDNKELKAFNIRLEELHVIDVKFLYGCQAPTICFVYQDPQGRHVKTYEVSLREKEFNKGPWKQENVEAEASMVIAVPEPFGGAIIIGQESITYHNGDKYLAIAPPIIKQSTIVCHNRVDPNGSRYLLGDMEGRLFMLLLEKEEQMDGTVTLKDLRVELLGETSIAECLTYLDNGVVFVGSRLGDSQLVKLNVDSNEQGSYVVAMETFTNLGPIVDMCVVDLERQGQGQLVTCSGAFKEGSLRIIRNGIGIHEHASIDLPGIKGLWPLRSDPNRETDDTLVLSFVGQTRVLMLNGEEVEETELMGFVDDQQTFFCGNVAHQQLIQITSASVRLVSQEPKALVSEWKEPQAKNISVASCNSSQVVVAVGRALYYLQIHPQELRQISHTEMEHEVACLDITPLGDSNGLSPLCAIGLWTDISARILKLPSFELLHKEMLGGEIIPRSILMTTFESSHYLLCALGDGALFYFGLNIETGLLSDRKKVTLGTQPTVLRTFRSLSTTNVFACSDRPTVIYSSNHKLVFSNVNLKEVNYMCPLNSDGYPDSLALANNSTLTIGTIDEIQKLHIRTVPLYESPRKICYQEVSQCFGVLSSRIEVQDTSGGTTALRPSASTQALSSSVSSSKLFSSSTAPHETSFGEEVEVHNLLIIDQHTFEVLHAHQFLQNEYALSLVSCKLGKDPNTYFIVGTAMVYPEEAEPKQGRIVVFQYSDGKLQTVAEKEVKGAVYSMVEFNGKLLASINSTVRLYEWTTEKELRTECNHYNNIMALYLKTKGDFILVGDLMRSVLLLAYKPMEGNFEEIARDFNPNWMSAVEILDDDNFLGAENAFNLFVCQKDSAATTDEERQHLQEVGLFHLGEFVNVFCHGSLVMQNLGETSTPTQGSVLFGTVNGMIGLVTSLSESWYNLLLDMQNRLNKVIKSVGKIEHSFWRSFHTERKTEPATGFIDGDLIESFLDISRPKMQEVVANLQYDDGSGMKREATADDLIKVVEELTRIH

Structure (SMILES) | IC50 [nM]
COCCOc1cccc(C(=O)Nc2ccc3c(c2)CN(C2CCC(=O)NC2=O)C3=O)c1 (stereo not drawn) [Compound 53, N-(2-(2,6-dioxopiperidin-3-yl)-1-oxoisoindolin-5-yl)-3-(2-methoxyethoxy)benzamide] | 1000 to 10000
Cc1cc(C(=O)Nc2ccc3c(c2)CN(C2CCC(=O)NC2=O)C3=O)ccc1Br (stereo not drawn) [Compound 54, 4-bromo-N-(2-(2,6-dioxopiperidin-3-yl)-1-oxoisoindolin-5-yl)-3-methylbenzamide] | 1000 to 10000
Cc1cc(F)cc(C(=O)Nc2ccc3c(c2)CN(C2CCC(=O)NC2=O)C3=O)c1 (stereo not drawn) [Compound 55] | 1000 to 10000
Cc1cc(C(=O)Nc2ccc3c(c2)CN(C2CCC(=O)NC2=O)C3=O)ccc1F (stereo not drawn) [Compound 56, N-(2-(2,6-dioxopiperidin-3-yl)-1-oxoisoindolin-5-yl)-4-fluoro-3-methylbenzamide] | 1000 to 10000
Cc1cccc(C(=O)Nc2ccc3c(c2)CN(C2CCC(=O)NC2=O)C3=O)c1Cl (stereo not drawn) [Compound 57, 2-chloro-N-(2-(2,6-dioxopiperidin-3-yl)-1-oxoisoindolin-5-yl)-3-methylbenzamide] | 1000 to 10000
CCOc1cc(C)cc(C(=O)Nc2ccc3c(c2)CN(C2CCC(=O)NC2=O)C3=O)c1 (stereo not drawn) [Compound 58, N-(2-(2,6-dioxopiperidin-3-yl)-1-oxoisoindolin-5-yl)-3-ethoxy-5-methylbenzamide] | 1000 to 10000
COc1cc(F)cc(C(=O)Nc2ccc3c(c2)CN(C2CCC(=O)NC2=O)C3=O)c1 (stereo not drawn) [Compound 59, N-(2-(2,6-dioxopiperidin-3-yl)-1-oxoisoindolin-5-yl)-3-fluoro-5-methoxybenzamide] | 1000 to 10000
CN(C)c1cccc(C(=O)Nc2ccc3c(c2)CN(C2CCC(=O)NC2=O)C3=O)c1 (stereo not drawn) [Compound 60, 3-(dimethylamino)-N-(2-(2,6-dioxopiperidin-3-yl)-1-oxoisoindolin-5-yl)benzamide] | 1000 to 10000
COc1cc(C)cc(C(=O)Nc2ccc3c(c2)CN(C2CCC(=O)NC2=O)C3=O)c1 (stereo not drawn) [Compound 61, N-(2-(2,6-dioxopiperidin-3-yl)-1-oxoisoindolin-5-yl)-3-methoxy-5-methylbenzamide] | 1000 to 10000
O=C1CCC(N2Cc3cc(Nc4nc5ccccc5s4)ccc3C2=O)C(=O)N1 (stereo not drawn) [Compound 63, 3-(5-(benzo[d]thiazol-2-ylamino)-1-oxoisoindolin-2-yl)piperidine-2,6-dione] | 1000 to 10000

More lines, now with the values ahead:

IC50 [nM] | Structure (SMILES)
1000 to 10000 | CC(C)c1ccccc1C(=O)Nc1ccc2c(c1)CN(C1CCC(=O)NC1=O)C2=O (stereo not drawn) [Compound 42, N-(2-(2,6-dioxopiperidin-3-yl)-1-oxoisoindolin-5-yl)-2-isopropylbenzamide]
1000 to 10000 | O=C1CCC(N2Cc3cc(NC(=O)c4ccc(OC(F)(F)F)cc4)ccc3C2=O)C(=O)N1 (stereo not drawn) [Compound 43, N-(2-(2,6-dioxopiperidin-3-yl)-1-oxoisoindolin-5-yl)-4-(trifluoromethoxy)benzamide]
1000 to 10000 | O=C1CCC(N2Cc3cc(NC(=O)c4cccc(OC(F)(F)F)c4)ccc3C2=O)C(=O)N1 (stereo not drawn) [Compound 44, N-(2-(2,6-dioxopiperidin-3-yl)-1-oxoisoindolin-5-yl)-3-(trifluoromethoxy)benzamide]
1000 to 10000 | O=C1CCC(N2Cc3cc(NC(=O)c4ccccc4OC(F)(F)F)ccc3C2=O)C(=O)N1 (stereo not drawn) [Compound 45, N-(2-(2,6-dioxopiperidin-3-yl)-1-oxoisoindolin-5-yl)-2-(trifluoromethoxy)benzamide]
1000 to 10000 | CS(=O)(=O)Nc1ccc(C(=O)Nc2ccc3c(c2)CN(C2CCC(=O)NC2=O)C3=O)cc1 (stereo not drawn) [Compound 46, N-(2-(2,6-dioxopiperidin-3-yl)-1-oxoisoindolin-5-yl)-4-(methylsulfonamido)benzamide]
1000 to 10000 | CS(=O)(=O)Nc1cccc(C(=O)Nc2ccc3c(c2)CN(C2CCC(=O)NC2=O)C3=O)c1 (stereo not drawn) [Compound 47, N-(2-(2,6-dioxopiperidin-3-yl)-1-oxoisoindolin-5-yl)-3-(methylsulfonamido)benzamide]
1000 to 10000 | O=C1CCC(N2Cc3cc(NC(=O)c4ccc(C5CC5)cc4)ccc3C2=O)C(=O)N1 (stereo not drawn) [Compound 48, 4-cyclopropyl-N-(2-(2,6-dioxopiperidin-3-yl)-1-oxoisoindolin-5-yl)benzamide]
1000 to 10000 | O=C1CCC(N2Cc3cc(NC(=O)c4ccccc4C4CC4)ccc3C2=O)C(=O)N1 (stereo not drawn) [Compound 49, 2-cyclopropyl-N-(2-(2,6-dioxopiperidin-3-yl)-1-oxoisoindolin-5-yl)benzamide]
1000 to 10000 | O=C1CCC(N2Cc3cc(NC(=O)c4cccc(C5CC5)c4)ccc3C2=O)C(=O)N1 (stereo not drawn) [Compound 50, 3-cyclopropyl-N-(2-(2,6-dioxopiperidin-3-yl)-1-oxoisoindolin-5-yl)benzamide]
1000 to 10000 | N#Cc1ccccc1C(=O)Nc1ccc2c(c1)CN(C1CCC(=O)NC1=O)C2=O (stereo not drawn) [Compound 51, 2-cyano-N-(2-(2,6-dioxopiperidin-3-yl)-1-oxoisoindolin-5-yl)benzamide]
1000 to 10000 | N#Cc1ccc(C(=O)Nc2ccc3c(c2)CN(C2CCC(=O)NC2=O)C3=O)cc1 (stereo not drawn) [Compound 52, 4-cyano-N-(2-(2,6-dioxopiperidin-3-yl)-1-oxoisoindolin-5-yl)benzamide]
< 1000 | O=C1CCC(N2Cc3cc(Nc4noc5cc(F)ccc45)ccc3C2=O)C(=O)N1 (stereo not drawn) [Compound 62, 3-(5-((6-fluorobenzo[d]isoxazol-3-yl)amino)-1-oxoisoindolin-2-yl)piperidine-2,6-dione]
< 1000 | O=C1CCC(N2Cc3cc(NC(=O)COc4ccccc4)ccc3C2=O)C(=O)N1 (stereo not drawn) [Compound 64, N-(2-(2,6-dioxopiperidin-3-yl)-1-oxoisoindolin-5-yl)-2-phenoxyacetamide]
< 1000 | O=C1CCC(N2Cc3cc(NC(=O)COCc4ccccc4)ccc3C2=O)C(=O)N1 (stereo not drawn) [Compound 65, 2-(benzyloxy)-N-(2-(2,6-dioxopiperidin-3-yl)-1-oxolsoindolin-5-yl)acetamide]

Reference: US20260014133A1, “SUBSTITUTED 3-(l-OXOISOINDOLIN-2-YL)PIPERIDINE-2,6-DIONE/2-(2,6-DIOXOPIPERIDIN-3-YL)ISOINDOLINE-l,3-DIONE ANALOGS AS MODULATORS OF CEREBLON PROTEIN” (St. Jude's Chidren's Research Hospital, Inc., priority 2022, published 2026)
